Source: ChEMBL document CHEMBL1201862, “PubChem BioAssay data set” (2004)
The source made the active and inactive calls.

What was measured:
Cytochrome P450 3A4 = Cytochrome P450 3A4 (Homo sapiens, UniProt P08684);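 note: CYP3A4 tested as one member of a cytochrome P450 panel screen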
Escherichia coli = assay: microbe, parasite or virus in culture
[1] = molecular target: T1, Corticotropin-releasing factor receptor 2/Corticotropin-releasing factor-binding protein (Homo sapiens, UniProt P24387+Q13324); assay: activators of CRF receptor 2 with binding protein – uHTS hits, confirmation (AID 602473); assay type: functional; settings: read-out: EC50_Mean
T1 sequence (Q13324 whole entry): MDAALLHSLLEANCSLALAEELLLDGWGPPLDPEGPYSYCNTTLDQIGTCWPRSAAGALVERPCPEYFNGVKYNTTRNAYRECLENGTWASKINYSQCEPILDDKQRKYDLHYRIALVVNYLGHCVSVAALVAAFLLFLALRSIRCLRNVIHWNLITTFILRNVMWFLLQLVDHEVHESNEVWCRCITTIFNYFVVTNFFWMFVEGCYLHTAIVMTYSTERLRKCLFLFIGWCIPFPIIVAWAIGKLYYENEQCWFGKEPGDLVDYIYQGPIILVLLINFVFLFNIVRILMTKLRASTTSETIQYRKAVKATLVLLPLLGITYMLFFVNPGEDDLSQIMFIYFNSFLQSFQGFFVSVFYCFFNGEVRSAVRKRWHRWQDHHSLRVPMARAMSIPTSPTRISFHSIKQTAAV
T1 sequence (P24387 whole entry): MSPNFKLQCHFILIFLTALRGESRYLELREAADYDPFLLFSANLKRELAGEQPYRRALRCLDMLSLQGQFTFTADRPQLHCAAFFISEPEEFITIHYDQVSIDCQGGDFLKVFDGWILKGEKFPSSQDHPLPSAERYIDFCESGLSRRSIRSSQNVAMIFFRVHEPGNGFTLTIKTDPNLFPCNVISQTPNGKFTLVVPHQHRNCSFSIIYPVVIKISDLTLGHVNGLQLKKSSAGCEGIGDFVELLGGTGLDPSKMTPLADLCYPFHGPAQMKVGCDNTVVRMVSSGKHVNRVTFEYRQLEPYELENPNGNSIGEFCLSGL

[2] = molecular target: T1, Corticotropin-releasing factor receptor 2/Corticotropin-releasing factor-binding protein; assay: Dose Response confirmation of uHTS hits for small molecule antagonists of the CRF-binding protein and CRF-R2 receptor complex.; assay type: functional; settings: read-out: IC50_Mean
[3] = blockers of CRF-binding protein–CRF-R2 complex – cell-based, uHTS hits, 384-well, dose response (AID 651639); assay type: functional, Homo sapiens; settings: read-out: IC50_Mean
BJ [4] = assay: BJ-TERT-LT-ST fibroblast viability loss – cell-based, RAS-independent, luminescence, dose response (AID 1935); assay type: functional; settings: Homo sapiens;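 note: BJ fibroblasts immortalized with TERT plus LT and ST oncogenes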
[5] = HEK-293T viability loss after treatment – luminescence, T-cell screen hits, cytotoxicity control for TCR NF-kB inhibitor project, dose response (AID 489026); assay type: functional, cell-based;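 note: cells exposed to compound about 14 hours before the viability readout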
[6] = viability of HCT116 lacking mutant beta-catenin – cell-based, human colon tumor, dose response (AID 1045); assay type: functional;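 note: HCT116 colon tumor cells with beta catenin knocked out; cells exposed to compound for 60 hours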
[7] = DRD fibroblast viability loss – cell-based, non-viral oncogenic, luminescence, dose response (AID 1934); assay type: functional; settings: Homo sapiens
[8] = viability of PTEN-deleted HCT116 cells – cell-based, HCT116 PTEN knockout, dose response (AID 1047); assay type: functional;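 note: HCT116 colon tumor cells with PTEN knocked out; cells exposed to compound for 60 hours before readout; potency for loss of cell viability measured by luminescence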
BJ [9] = assay: BJ-TERT fibroblast viability loss – cell-based, RAS-independent, luminescence, dose response (AID 1933); assay type: functional; settings: Homo sapiens
BJ [10] = assay: cells; assay type: functional, cell-based; settings: Homo sapiens, read-out: EC50

Chain of Cytochrome P450 3A4 (P08684 whole entry): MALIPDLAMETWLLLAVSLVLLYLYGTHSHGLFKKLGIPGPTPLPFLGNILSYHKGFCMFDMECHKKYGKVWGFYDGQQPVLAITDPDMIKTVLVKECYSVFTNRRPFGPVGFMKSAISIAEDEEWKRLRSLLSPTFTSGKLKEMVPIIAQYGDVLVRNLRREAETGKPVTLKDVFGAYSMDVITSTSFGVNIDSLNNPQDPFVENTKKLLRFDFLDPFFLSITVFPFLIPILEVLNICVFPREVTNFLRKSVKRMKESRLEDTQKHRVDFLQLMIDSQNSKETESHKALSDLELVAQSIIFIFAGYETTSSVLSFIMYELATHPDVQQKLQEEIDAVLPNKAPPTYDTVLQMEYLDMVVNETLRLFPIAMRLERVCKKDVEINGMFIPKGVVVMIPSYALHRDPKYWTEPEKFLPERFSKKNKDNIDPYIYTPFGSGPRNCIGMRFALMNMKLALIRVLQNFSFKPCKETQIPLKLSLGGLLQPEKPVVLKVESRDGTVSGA

| AC50 (Cytochrome P450 3A4) | EC50 [1] | IC50 [2] | IC50 [3] | SMILES | also measured |
| --- | --- | --- | --- | --- | --- |
| inconclusive |  |  |  | COc1ccc(CNC(C)(C)C)cc1Cl.Cl |  |
|  | > 53 µM (inactive) | 25.7 µM (active) | 19 µM (active) | COC(=O)C1=NN(c2ccccc2)C2(S1)SC(C(C)=O)=C(C)N2c1ccccc1 (stereo unspecified) |  |
|  | > 53 µM (inactive) | < 0.368 µM (active) | > 20 µM (inactive) | Cc1nn(Cc2ccc(Cl)cc2)c(C)c1NC(=O)c1ccc([N+](=O)[O-])cc1 |  |

The next lines start with the compound.

| SMILES | AC50 (Cytochrome P450 3A4) | EC50 [1] | IC50 [2] | IC50 [3] | also measured |
| --- | --- | --- | --- | --- | --- |
| Cc1ccc(-c2cc(C(=O)OCC(=O)N(C)c3c(N)n(Cc4ccccc4)c(=O)[nH]c3=O)c3ccccc3n2)o1 |  |  |  |  | AC50 (Escherichia coli): 25.8 µM (active) |
| COc1cc(C(=O)N2CCN(c3cccc(C)c3C)CC2)cc(OC)c1OC |  |  |  |  | EC50 (BJ [4]): 4.12 µM (active); IC50 [5]: > 80 µM (inactive); EC50 [6]: 721 nM (active); EC50 [7]: 11.8 µM (inconclusive); EC50 [8]: 876 nM (active); EC50 (BJ [9]): 7.81 µM (inconclusive); EC50 (BJ [10]): 20.4 µM (active) |
| CC1(C)CC(=O)c2cnc(N)nc2C1 | inconclusive |  |  |  |  |
